From US12258338B2, “Modulators of the integrated stress response pathway” (EVOTEC INTERNATIONAL GMBH, priority 2019, dated 2025)
Read-outs that look alike come from different tables or passages of the source.

Tested on: ATF4
Assay: HEK-ATF4 High Content Imaging assay (prevention of Tunicamycin induced ISR; ATF4 signal ratio between nucleus and cytoplasm)
Assay type: cell-based
Method in brief: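 Wild-type HEK293 cells in 0.3% FBS medium were co-treated with compounds and Tunicamycin (3.3 μM in prediluted medium, 11-fold over final) for 6 h at 37 °C. Fixed cells were immunostained for ATF4 with Hoechst nuclei; imaging gave nuclear/cytoplasmic ATF4 ratio, with nuclei counts as toxicity control.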

[1] = Homo sapiens, Wild-type HEK293 cells, Tunicamycin induced ISR, 6 h, read-out: IIEK-ATF4 Activity
[2] = Table 24 category key, read-out: HEK-ATF4 Activity*

IC50 [1] [nM] | IC50 [2] [nM] | Compound
1 to 500 | 1 to 500 | O=C(COc1ccc(Cl)c(F)c1)N[C@H]1CC[C@H](c2nnc([C@H]3C[C@@H](OC(F)(F)F)C3)o2)NC1 [Example 50, 2-(4-chloro-3-fluorophenoxy)-N-[(3S,6R)-6-{5-[(1s,3s)-3-(trifluoromethoxy)cyclobutyl]-1,3,4-oxadiazol-2-yl}piperidin-3-yl]acetamide]
2000 to 15000 | 500 to 2000 | O=C(COc1ccc(Cl)c(F)c1)N[C@H]1CC[C@H](c2nnc(COC(F)(F)F)o2)NC1 [Example 61, 2-(4-chloro-3-fluorophenoxy)-N-[(3S,6R)-6-(5-[(trifluoromethoxy)methyl]-1,3,4-oxadiazol-2-yl}piperidin-3-yl]acetamide]
